Data set [1] is described as follows: Drug uptake in tumor of BALB/c nude mouse xenografted with human MCF7 cells at 8 to 12 umol/kg, ip measured after 2 hrs by LC-MS analysis. In kind it is ADME, organism-based, Neoplasm. The following applies: in vivo, dose 8-12 µmol/kg.
Data set [2] deals with MCF7. The experiment in a line: Cytotoxicity against human MCF7 cells assessed as reduction in cell viability measured after 48 hrs by MTT assay. The data set is classed as functional, cell-based. The settings on record: MCF7, 48 h.
The subject of another data set is HT-29. The experiment in a line: Cytotoxicity against human HT-29 cells assessed as reduction in cell viability measured after 48 hrs by MTT assay. In kind it is functional, cell-based. The following applies: HT-29, 48 h.
For a further data set, the system named is A2780. The data set is described as follows: Cytotoxicity against human A2780 cells assessed as reduction in cell viability measured after 48 hrs by MTT assay. In kind it is functional, cell-based. The settings on record: A2780, 48 h.
A short description of data set [3]: Cytotoxicity against human A2780/PTX cells assessed as reduction in cell viability measured after 48 hrs by MTT assay. In kind it is functional, cell-based.
The next data set concerns NCM460. The experiment in a line: Cytotoxicity against human NCM460 cells assessed as reduction in cell viability measured after 48 hrs by MTT assay. In kind it is cell-based. The settings on record: NCM460, 48 h.
Another data set concerns HEK293. The data set is described as follows: Cytotoxicity against HEK293 cells assessed as reduction in cell viability measured after 48 hrs by MTT assay. The data set is classed as cell-based. The following applies: Homo sapiens, HEK293, 48 h.
Data set [4] is described as follows: Drug uptake in human MCF7 cells at 20 nM measured after 4 hrs by LC-MS analysis. The data set is classed as ADME, cell-based. The following applies: mcf7, 4 h, 0.02 µM.
The test system of data set [5] is MCF7. The data set is described as follows: Induction of apoptosis in human MCF7 cells at IC50 measured after 4 hrs by Annexin-V FITC/propidium iodide staining based flow cytometry. The data set is classed as functional, cell-based.
Data set [6] concerns MCF7. The experiment in a line: Induction of mitochondrial membrane potential loss in human MCF7 cells at IC50 measured after 4 hrs by JC-1 staining based flow cytometry. The data set is classed as functional, cell-based.
Data set [7] concerns MCF7. The experiment in a line: Cell cycle arrest in human MCF7 cells assessed as increase in accumulation at G2/M-phase at IC50 measured after 4 hrs by […] flow cytometry. In kind it is functional.
The test system of data set [8] is MCF7. The data set is described as follows: Antitumor activity against human MCF7 cells xenografted in BALB/c nude mouse assessed as reduction in tumor volume at 12 umol/kg, ip administered every two days for two weeks relative to control. In kind it is functional. Further details: scale not given: the % may be the effect or the level left. The following applies: dose 12 µmol/kg; time 2 weeks.

For data set [9], the system named is MCF7. The experiment in a line: Antitumor activity against human MCF7 cells xenografted in BALB/c nude mouse assessed as reduction in tumor weight at 12 umol/kg, ip administered every two days for two weeks relative to control. The settings on record: dose 12 µmol/kg; time 2 weeks. Also on record: scale not given: the % may be the effect or the level left. In kind it is functional.

Data set [10] in a line: Neurotoxicity in BALB/c mouse assessed as increase in pain sensitivity at 12 umol/kg, ip administered every two days for 14 days by hot-plate test. The data set is classed as toxicity, organism-based. The settings on record: in vivo, 336 h, dose 12 µmol/kg, time 14 day.
Data set [11] can be described thus: Neurotoxicity in BALB/c mouse assessed as increase in pain sensitivity at 12 umol/kg, ip administered every two days for 14 days by hot water tail immersion test. In kind it is toxicity, organism-based. The following applies: in vivo, 336 h, dose 12 µmol/kg, time 14 day.
Data set [12] can be described thus: Neurotoxicity in BALB/c mouse assessed as increase in pain sensitivity at 12 umol/kg, ip administered every two days for 14 days by cold water tail immersion test. In kind it is toxicity, organism-based. The following applies: in vivo, 336 h, dose 12 µmol/kg, time 14 day.
Data set [13] can be described thus: Neurotoxicity in BALB/c mouse assessed as change in acetylcholine level at 12 umol/kg, ip administered every two days for 14 days measured post last dose by LC-MS analysis. The following applies: in vivo, 336 h, dose 12 µmol/kg, time 14 day. In kind it is toxicity, organism-based.
A short description of data set [14]: Neurotoxicity in BALB/c mouse assessed as change in DOPAC level at 12 umol/kg, ip administered every two days for 14 days measured post last dose by LC-MS analysis. In kind it is toxicity, organism-based. The following applies: in vivo, 336 h, dose 12 µmol/kg, time 14 day.
Data set [15] can be described thus: Neurotoxicity in BALB/c mouse assessed as change in dopamine level at 12 umol/kg, ip administered every two days for 14 days measured post last dose by LC-MS analysis. In kind it is toxicity, organism-based. The settings on record: in vivo, 336 h, dose 12 µmol/kg, time 14 day.
A short description of data set [16]: Neurotoxicity in BALB/c mouse assessed as change in GABA level at 12 umol/kg, ip administered every two days for 14 days measured post last dose by LC-MS analysis. The data set is classed as toxicity, organism-based. The settings on record: in vivo, 336 h, dose 12 µmol/kg, time 14 day.
Data set [17] in a line: Neurotoxicity in BALB/c mouse assessed as change in glutamate level at 12 umol/kg, ip administered every two days for 14 days measured post last dose by LC-MS analysis. The data set is classed as toxicity, organism-based. The following applies: in vivo, 336 h, dose 12 µmol/kg, time 14 day.
The nature of data set [18]: Neurotoxicity in BALB/c mouse assessed as change in glutamine level at 12 umol/kg, ip administered every two days for 14 days measured post last dose by LC-MS analysis. In kind it is toxicity, organism-based. The settings on record: in vivo, 336 h, dose 12 µmol/kg, time 14 day.
The nature of data set [19]: Neurotoxicity in BALB/c mouse assessed as change in histamine level at 12 umol/kg, ip administered every two days for 14 days measured post last dose by LC-MS analysis. In kind it is toxicity, organism-based. The following applies: in vivo, 336 h, dose 12 µmol/kg, time 14 day.
Data set [20] in a line: Neurotoxicity in BALB/c mouse assessed as change in histidine level at 12 umol/kg, ip administered every two days for 14 days measured post last dose by LC-MS analysis. The data set is classed as toxicity, organism-based. The following applies: in vivo, 336 h, dose 12 µmol/kg, time 14 day.
The nature of data set [21]: Neurotoxicity in BALB/c mouse assessed as change in noradrenaline level at 12 umol/kg, ip administered every two days for 14 days measured post last dose by LC-MS analysis. In kind it is toxicity, organism-based. The following applies: in vivo, 336 h, dose 12 µmol/kg, time 14 day.
The nature of data set [22]: Neurotoxicity in BALB/c mouse assessed as change in serotonin level at 12 umol/kg, ip administered every two days for 14 days measured post last dose by LC-MS analysis. The settings on record: in vivo, 336 h, dose 12 µmol/kg, time 14 day. In kind it is toxicity, organism-based.
Data set [23] can be described thus: Neurotoxicity in BALB/c mouse assessed as change in vanillylmandelic acid level at 12 umol/kg, ip administered every two days for 14 days measured post last dose by LC-MS analysis. The settings on record: in vivo, 336 h, dose 12 µmol/kg, time 14 day. In kind it is toxicity, organism-based.

Activity calls are given as the source filed them. The rule behind the calls is not given here.

With `CC(=O)O[C@H]1C(=O)[C@@]2(C)[C@H]([C@H](OC(=O)c3ccccc3)[C@]3(O)C[C@H](OC(=O)[C@H](O)[C@@H](NC(=O)c4ccccc4)c4ccccc4)C(C)=C1C3(C)C)[C@]1(OC(C)=O)CO[C@@H]1C[C@@H]2O` [PACLITAXEL], the Drug uptake entry in [1] and in data set [4] was “Active” in each case. Besides, the IC50 with MCF7 [2] was 0.0066 µM; in the data set on HT-29 it was 0.0086 µM; in the data set on A2780 it was 0.0152 µM; in data set [3] it was 23.9 µM; with NCM460, 0.0092 µM; with HEK293, 0.0163 µM. The result in the data set with MCF7 [5], in the data set on MCF7 [6] and with MCF7 [7] was Active. In addition, the Activity in the data set with MCF7 [8] was 75.7%; in the data set with MCF7 [9] it was 65.7%; in [10] it was “Toxic”; in data set [11], “Toxic”; in data set [12], “Toxic”; in [13] it was “Toxic”. The Activity result in data set [14], in data set [15], in data set [16], in data set [17], in [18] and in data set [19] was “Toxic” in each case. Moreover, the Activity result in [20], in data set [21], in data set [22] and in data set [23] was “Toxic” each time.
With H-FFRKLKKSV-NH2, the IC50 in the data set on MCF7 [2] and in the data set with HT-29 was above 50 µM throughout.
With H-FKKFFRKLK-NH2, the IC50 in the data set with MCF7 [2] and with HT-29 was above 50 µM in each case.
Take H-KFFRKLKKS-NH2: the IC50 in the data set on MCF7 [2] and in the data set with HT-29 was above 50 µM throughout.
As to H-KKFFRKLKK-NH2, the IC50 in the data set on MCF7 [2] and with HT-29 was above 50 µM in each case.
For the molecule H-KRFKKFFRK-NH2, the concentration for half-maximal inhibition (IC50) in the data set with MCF7 [2] and with HT-29 was above 50 µM throughout.
As for H-RFKKFFRKL-NH2, the IC50 with MCF7 [2] and with HT-29 was above 50 µM in each case.
As for H-VKRFKKFFR-NH2, the IC50 in the data set with MCF7 [2] and in the data set with HT-29 was above 50 µM each time.
Turning to H-VKRFKKFFRKLKKSV-NH2, the figures for the IC50 in the data set on MCF7 [2] and in the data set on HT-29 were 18.2 µM and 15.1 µM, respectively.

The record behind these values is ChEMBL document CHEMBL4732115, “Discovery of novel cell-penetrating and tumor-targeting peptide-drug conjugate (PDC) for programmable delivery of paclitaxel and cancer treatment” (Eur J Med Chem, 2021).
